Test results: ChEMBL document CHEMBL3997804, “Evaluation of a series of 2-napthamide derivatives as inhibitors of the drug efflux pump AcrB for the reversal of antimicrobial resistance” (Bioorg Med Chem Lett, 2017)
The source made the active and inactive calls. The rule behind the calls is not given here.

Legend:
[1] = system: HepG2; assay: Cytotoxicity against human HepG2 cells at 512 to 1024 ug/ml measured every 60 mins for 20 hrs by RealTime-Glo MT cell viability assay; assay type: cell-based; details: hepg2, 20 h
[2] = system: Escherichia coli; assay: Disruption of inner membrane potential in drug resistant Escherichia coli BW25113 at 512 ug/ml incubated for 10 mins measured for 60 secs by DiOC2(3) dye based fluorimetric method; assay type: functional
[3] = system: Escherichia coli BW25113; assay: Inhibition of […] in drug resistant Escherichia coli BW25113 assessed as increase in outer membrane permeability by measuring increase nitrocefin hydrolysis at 512 ug/ml measured over 30 mins in presence of CCCP by spectrophotometric method
[4] = system: Escherichia coli BW25113; assay: Inhibition of AcrB in wild-type drug resistant Escherichia coli BW25113 assessed as potentiation of tetraphenyl phosphonium chloride-induced antibacterial activity by measuring tetraphenyl phosphonium chloride MIC at 256 ug/ml after 18 hrs by checkerboard method (reference value: 1024 ug/ml)
[5] = system: Escherichia coli; assay: Growth inhibition of wild-type drug-resistant Escherichia coli BW25113 after 18 hrs by resazurin dye based broth microdilution method
[6] = system: Escherichia coli BW25113; assay: Inhibition of AcrB in wild-type drug resistant Escherichia coli BW25113 assessed as potentiation of erythromycin-induced antibacterial activity by measuring FICI at 128 to 512 ug/ml after 18 hrs by checkerboard method
[7] = system: Escherichia coli BW25113; assay: Inhibition of AcrB in wild-type drug resistant Escherichia coli BW25113 assessed as potentiation of erythromycin-induced antibacterial activity by measuring erythromycin MIC at 256 ug/ml after 18 hrs by checkerboard method (reference value: 128 ug/ml)
[8] = system: Escherichia coli BW25113; assay: Inhibition of AcrB in wild-type drug resistant Escherichia coli BW25113 assessed as potentiation of tetraphenyl phosphonium chloride-induced antibacterial activity by measuring tetraphenyl phosphonium chloride MIC at 512 ug/ml after 18 hrs by checkerboard method (reference value: 1024 ug/ml)
[9] = system: Escherichia coli; assay: Potentiation of erythromycin-induced antibacterial activity against AcrB-deficient Escherichia coli BW25113 assessed as erythromycin MIC at 512 ug/ml after 18 hrs by checkerboard method (reference value: 16 ug/ml); assay type: functional; details: BW25113, 18 h
[10] = system: Escherichia coli; assay: Effect on rifampicin-induced antibacterial activity against AcrB-deficient Escherichia coli BW25113 assessed as rifampicin MIC at 256 ug/ml after 18 hrs by checkerboard method (reference value: 16 ug/ml); assay type: functional; details: BW25113, 18 h
[11] = system: Escherichia coli; assay: Potentiation of tetraphenyl phosphonium chloride-induced antibacterial activity against AcrB-deficient Escherichia coli BW25113 assessed as tetraphenyl phosphonium chloride MIC at 256 ug/ml after 18 hrs by checkerboard method (reference value: 64 ug/ml); assay type: functional; details: BW25113, 18 h
[12] = system: Escherichia coli BW25113; assay: Inhibition of AcrB in wild-type drug resistant Escherichia coli BW25113 assessed as potentiation of chloramphenicol-induced antibacterial activity by measuring chloramphenicol MIC at 512 ug/ml after 18 hrs by checkerboard method (reference value: 8 ug/ml)
[13] = system: Escherichia coli; assay: Potentiation of tetraphenyl phosphonium chloride-induced antibacterial activity against AcrB-deficient Escherichia coli BW25113 assessed as tetraphenyl phosphonium chloride MIC at 128 ug/ml after 18 hrs by checkerboard method (reference value: 64 ug/ml); assay type: functional; details: BW25113, 18 h
[14] = system: Escherichia coli BW25113; assay: Inhibition of AcrB in wild-type drug resistant Escherichia coli BW25113 assessed as reduction in nile red efflux at 50 uM pretreated for 15 mins followed by nile red addition measured after 3 hrs for 200 secs in presence of glucose by fluorimetric method
[15] = system: Escherichia coli; assay: Potentiation of tetraphenyl phosphonium chloride-induced antibacterial activity against AcrB-deficient Escherichia coli BW25113 assessed as tetraphenyl phosphonium chloride MIC at 512 ug/ml after 18 hrs by checkerboard method (reference value: 64 ug/ml); assay type: functional; details: BW25113, 18 h
[16] = system: Escherichia coli BW25113; assay: Inhibition of AcrB in wild-type drug resistant Escherichia coli BW25113 assessed as potentiation of chloramphenicol-induced antibacterial activity by measuring FICI at 128 to 512 ug/ml after 18 hrs by checkerboard method
[17] = system: Escherichia coli; assay: Effect on rifampicin-induced antibacterial activity against wild-type drug resistant Escherichia coli BW25113 assessed as rifampicin MIC at 512 ug/ml after 18 hrs by checkerboard method (reference value: 16 ug/ml); assay type: functional; details: BW25113, 18 h
[18] = system: HEK293; assay: Cytotoxicity against HEK293 cells at 512 to 1024 ug/ml measured every 60 mins for 20 hrs by RealTime-Glo MT cell viability assay; assay type: cell-based; details: human, hek293, 20 h
[19] = system: Escherichia coli; assay: Effect on rifampicin-induced antibacterial activity against wild-type drug resistant Escherichia coli BW25113 assessed as rifampicin MIC at 128 ug/ml after 18 hrs by checkerboard method (reference value: 16 ug/ml); assay type: functional; details: BW25113, 18 h
[20] = system: Escherichia coli; assay: Growth inhibition of drug-sensitive AcrB-deficient Escherichia coli BW25113 at 1024 ug/ml after 18 hrs by resazurin dye based broth microdilution method
[21] = system: Escherichia coli; assay: Effect on rifampicin-induced antibacterial activity against AcrB-deficient Escherichia coli BW25113 assessed as rifampicin MIC at 512 ug/ml after 18 hrs by checkerboard method (reference value: 16 ug/ml); assay type: functional; details: BW25113, 18 h
[22] = system: Escherichia coli; assay: Effect on rifampicin-induced antibacterial activity against AcrB-deficient Escherichia coli BW25113 assessed as rifampicin MIC at 128 ug/ml after 18 hrs by checkerboard method (reference value: 16 ug/ml); assay type: functional; details: BW25113, 18 h
[23] = system: Escherichia coli; assay: Potentiation of chloramphenicol-induced antibacterial activity against AcrB-deficient Escherichia coli BW25113 assessed as chloramphenicol MIC at 128 ug/ml after 18 hrs by checkerboard method (reference value: 2 ug/ml); assay type: functional; details: BW25113, 18 h
[24] = system: Escherichia coli; assay: Effect on rifampicin-induced antibacterial activity against wild-type drug resistant Escherichia coli BW25113 assessed as rifampicin MIC at 256 ug/ml after 18 hrs by checkerboard method (reference value: 16 ug/ml); assay type: functional; details: BW25113, 18 h
[25] = system: Escherichia coli; assay: Potentiation of chloramphenicol-induced antibacterial activity against AcrB-deficient Escherichia coli BW25113 assessed as chloramphenicol MIC at 256 ug/ml after 18 hrs by checkerboard method (reference value: 2 ug/ml); assay type: functional; details: BW25113, 18 h
[26] = system: Escherichia coli BW25113; assay: Inhibition of AcrB in wild-type drug resistant Escherichia coli BW25113 assessed as potentiation of chloramphenicol-induced antibacterial activity by measuring chloramphenicol MIC at 128 ug/ml after 18 hrs by checkerboard method (reference value: 8 ug/ml)
[27] = system: Escherichia coli BW25113; assay: Inhibition of AcrB in wild-type drug resistant Escherichia coli BW25113 assessed as potentiation of chloramphenicol-induced antibacterial activity by measuring chloramphenicol MIC at 256 ug/ml after 18 hrs by checkerboard method (reference value: 8 ug/ml)
[28] = system: Escherichia coli; assay: Potentiation of chloramphenicol-induced antibacterial activity against AcrB-deficient Escherichia coli BW25113 assessed as chloramphenicol MIC at 512 ug/ml after 18 hrs by checkerboard method (reference value: 2 ug/ml); assay type: functional; details: BW25113, 18 h
[29] = system: Escherichia coli; assay: Potentiation of erythromycin-induced antibacterial activity against AcrB-deficient Escherichia coli BW25113 assessed as erythromycin MIC at 128 ug/ml after 18 hrs by checkerboard method (reference value: 16 ug/ml); assay type: functional; details: BW25113, 18 h
[30] = system: Escherichia coli BW25113; assay: Inhibition of AcrB in drug resistant Escherichia coli BW25113 assessed as reduction in nile red efflux at 100 uM pretreated for 15 mins followed by nile red addition measured after 3 hrs for 200 secs in presence of glucose by fluorimetric method
[31] = system: Escherichia coli; assay: Potentiation of erythromycin-induced antibacterial activity against AcrB-deficient Escherichia coli BW25113 assessed as erythromycin MIC at 256 ug/ml after 18 hrs by checkerboard method (reference value: 16 ug/ml); assay type: functional; details: BW25113, 18 h
[32] = system: Escherichia coli BW25113; assay: Inhibition of AcrB in wild-type drug resistant Escherichia coli BW25113 assessed as potentiation of erythromycin-induced antibacterial activity by measuring erythromycin MIC at 128 ug/ml after 18 hrs by checkerboard method (reference value: 128 ug/ml)
[33] = system: Escherichia coli BW25113; assay: Inhibition of AcrB in wild-type drug resistant Escherichia coli BW25113 assessed as potentiation of erythromycin-induced antibacterial activity by measuring erythromycin MIC at 512 ug/ml after 18 hrs by checkerboard method (reference value: 128 ug/ml)
[34] = system: Escherichia coli BW25113; assay: Inhibition of AcrB in wild-type drug resistant Escherichia coli BW25113 assessed as potentiation of tetraphenyl phosphonium chloride-induced antibacterial activity by measuring FICI at 128 to 512 ug/ml after 18 hrs by checkerboard method
[35] = system: Escherichia coli BW25113; assay: Inhibition of AcrB in wild-type drug resistant Escherichia coli BW25113 assessed as potentiation of tetraphenyl phosphonium chloride-induced antibacterial activity by measuring tetraphenyl phosphonium chloride MIC at 128 ug/ml after 18 hrs by checkerboard method (reference value: 1024 ug/ml)

In the case of `CC(C)CCOc1cc(C(N)=O)cc2ccccc12`, the Activity [1] was “Non-Toxic”, the Activity [2] was “inactive” and the inhibition [3] was “inactive”. For the same compound, the MIC [4] was 512 µg/mL, the “growth inhibition (GI)” value [5] was “Non-Toxic” and the fractional inhibitory concentration index (FICI) [6] was 0.25. It also gave an MIC [7] of 64 µg/mL, an MIC [8] of 128 µg/mL and an MIC [9] of 16 µg/mL. For the same compound, the MIC [10] was 16 µg/mL, the MIC [11] was 64 µg/mL and the MIC [12] was 2 µg/mL. For the same compound, the MIC [13] was 64 µg/mL, the inhibition [14] was “Active” and the MIC [15] was 64 µg/mL. The fractional inhibitory concentration index (FICI) [16] was 0.25, the MIC [17] was 16 µg/mL and the Activity [18] was “Non-Toxic”. The MIC [19] was 16 µg/mL, the “growth inhibition (GI)” value [20] was “Toxic” and the MIC [21] was 16 µg/mL. It also gave an MIC [22] of 16 µg/mL, an MIC [23] of 2 µg/mL and an MIC [24] of 16 µg/mL. The MIC [25] was 2 µg/mL, the MIC [26] was 8 µg/mL and the MIC [27] was 4 µg/mL. For the same compound, the MIC [28] was 2 µg/mL, the MIC [29] was 16 µg/mL and the inhibition [30] was “Active”. It also gave an MIC [31] of 16 µg/mL, an MIC [32] of 128 µg/mL and an MIC [33] of 16 µg/mL. It also gave a fractional inhibitory concentration index (FICI) [34] of 0.25 and an MIC [35] of 1020 µg/mL.
